# Results reported in ChEMBL document CHEMBL1201862, “PubChem BioAssay data set” (2004).
# Calls of active or inactive are those of the source.
# Columns and labels:
# [1] = cytotoxicity toward DRD oncogenic fibroblasts, dose response, cell-based, non-viral oncogenic, luminescence (AID 1934); type: functional; conditions: Homo sapiens
# [2] = tested on: BJ; experiment: cytotoxicity toward BJ-TERT-LT-ST fibroblasts, dose response, cell-based, RAS-independent, luminescence (AID 1935); type: functional; conditions: Homo sapiens;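 note: BJ fibroblasts immortalized with TERT plus LT and ST oncogenes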
# [3] = tested on: BJ; experiment: cytotoxicity toward BJ-TERT fibroblasts, dose response, cell-based, RAS-independent, luminescence (AID 1933); type: functional; conditions: Homo sapiens
# [4] = target: Intestinal-type alkaline phosphatase (Homo sapiens, UniProt P09923); experiment: inhibition of human intestinal alkaline phosphatase – biochemical, dose response (AID 488876); type: functional
# Chain of Intestinal-type alkaline phosphatase (Homo sapiens, UniProt P09923) (P09923 whole entry): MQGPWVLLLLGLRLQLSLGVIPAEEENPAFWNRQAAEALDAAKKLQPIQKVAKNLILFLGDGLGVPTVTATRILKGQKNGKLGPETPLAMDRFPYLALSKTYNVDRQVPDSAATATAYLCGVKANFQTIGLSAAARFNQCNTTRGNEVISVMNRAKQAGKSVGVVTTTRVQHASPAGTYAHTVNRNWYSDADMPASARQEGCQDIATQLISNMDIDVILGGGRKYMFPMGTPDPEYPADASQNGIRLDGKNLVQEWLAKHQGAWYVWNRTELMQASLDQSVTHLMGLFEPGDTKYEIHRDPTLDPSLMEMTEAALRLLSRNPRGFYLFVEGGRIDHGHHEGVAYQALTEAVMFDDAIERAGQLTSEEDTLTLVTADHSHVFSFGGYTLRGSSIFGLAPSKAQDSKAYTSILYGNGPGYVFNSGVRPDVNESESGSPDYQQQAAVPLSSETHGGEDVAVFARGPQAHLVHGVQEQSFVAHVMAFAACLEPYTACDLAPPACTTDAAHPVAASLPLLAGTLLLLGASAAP
# [5] = tested on: BJ; experiment: cells; type: functional, cell-based; conditions: Homo sapiens
# [6] = target: T1, Alkaline phosphatase, tissue-nonspecific isozyme (Homo sapiens, UniProt P05186); experiment: TNAP enzyme inhibition by screening hits, dose response, selectivity assay for mouse IAP inhibitor project, biochemical, human TNAP, uHTS hits (AID 488906); type: functional
# T1 sequence (P05186 whole entry): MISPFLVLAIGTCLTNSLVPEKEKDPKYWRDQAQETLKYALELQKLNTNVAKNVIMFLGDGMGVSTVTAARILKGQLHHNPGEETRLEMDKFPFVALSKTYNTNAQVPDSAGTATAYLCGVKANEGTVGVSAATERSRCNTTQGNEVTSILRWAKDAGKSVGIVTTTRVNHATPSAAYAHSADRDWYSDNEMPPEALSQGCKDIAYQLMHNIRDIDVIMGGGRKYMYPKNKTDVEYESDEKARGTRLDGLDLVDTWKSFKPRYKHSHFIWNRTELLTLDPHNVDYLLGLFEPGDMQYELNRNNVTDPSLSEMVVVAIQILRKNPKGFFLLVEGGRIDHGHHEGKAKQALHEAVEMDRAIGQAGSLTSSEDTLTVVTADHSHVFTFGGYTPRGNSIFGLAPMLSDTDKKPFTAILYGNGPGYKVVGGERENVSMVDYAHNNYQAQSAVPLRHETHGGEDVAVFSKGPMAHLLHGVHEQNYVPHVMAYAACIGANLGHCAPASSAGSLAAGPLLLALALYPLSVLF
# [7] = target: Intestinal-type alkaline phosphatase (Mus musculus, UniProt P24822); experiment: PubChem AID 488785; type: functional
# Chain of Intestinal-type alkaline phosphatase (Mus musculus, UniProt P24822) (P24822 whole entry): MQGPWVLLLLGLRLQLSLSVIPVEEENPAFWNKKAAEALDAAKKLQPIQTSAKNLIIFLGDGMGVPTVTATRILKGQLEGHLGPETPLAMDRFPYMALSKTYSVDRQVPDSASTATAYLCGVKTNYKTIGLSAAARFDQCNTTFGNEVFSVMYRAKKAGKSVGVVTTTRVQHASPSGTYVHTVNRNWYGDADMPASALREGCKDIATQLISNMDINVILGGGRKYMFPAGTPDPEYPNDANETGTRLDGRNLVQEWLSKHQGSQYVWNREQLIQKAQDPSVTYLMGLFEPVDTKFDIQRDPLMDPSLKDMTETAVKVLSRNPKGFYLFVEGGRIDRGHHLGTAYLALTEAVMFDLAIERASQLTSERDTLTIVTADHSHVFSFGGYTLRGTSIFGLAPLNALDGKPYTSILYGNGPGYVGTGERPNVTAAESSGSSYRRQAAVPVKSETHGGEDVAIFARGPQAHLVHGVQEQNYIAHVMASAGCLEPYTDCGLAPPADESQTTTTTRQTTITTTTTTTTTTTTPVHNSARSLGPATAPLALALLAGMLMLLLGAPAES
# [8] = growth induction of Burl-1 ts yeast mutant, dose response, counter-screen for SUMOylation pathway inhibitor project, whole organism, S. cerevisiae, luminescence (AID 463199); type: functional
# [9] = tested on: Escherichia coli; experiment: microbe, parasite or virus in culture
# [10] = target: Induced myeloid leukemia cell differentiation protein Mcl-1 (Homo sapiens, UniProt Q07820); type: functional
# Chain of Induced myeloid leukemia cell differentiation protein Mcl-1 (Q07820 whole entry): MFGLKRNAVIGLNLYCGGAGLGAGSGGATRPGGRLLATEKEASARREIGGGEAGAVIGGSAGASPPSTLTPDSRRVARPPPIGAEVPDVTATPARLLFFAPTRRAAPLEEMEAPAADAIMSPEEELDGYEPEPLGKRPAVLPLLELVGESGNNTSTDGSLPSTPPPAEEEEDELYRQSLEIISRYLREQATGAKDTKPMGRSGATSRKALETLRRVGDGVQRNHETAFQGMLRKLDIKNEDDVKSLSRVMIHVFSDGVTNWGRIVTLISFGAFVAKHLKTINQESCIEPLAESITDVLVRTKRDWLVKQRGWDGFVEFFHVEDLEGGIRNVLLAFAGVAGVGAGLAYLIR
# [11] = target: T2, Heat shock 70 kDa protein 1A (Homo sapiens, UniProt P0DMV8); experiment: Hsp70 inhibitors, SAR follow-up, biochemical, fluorescence polarization (AID 1072)
# T2 sequence (P0DMV8 whole entry): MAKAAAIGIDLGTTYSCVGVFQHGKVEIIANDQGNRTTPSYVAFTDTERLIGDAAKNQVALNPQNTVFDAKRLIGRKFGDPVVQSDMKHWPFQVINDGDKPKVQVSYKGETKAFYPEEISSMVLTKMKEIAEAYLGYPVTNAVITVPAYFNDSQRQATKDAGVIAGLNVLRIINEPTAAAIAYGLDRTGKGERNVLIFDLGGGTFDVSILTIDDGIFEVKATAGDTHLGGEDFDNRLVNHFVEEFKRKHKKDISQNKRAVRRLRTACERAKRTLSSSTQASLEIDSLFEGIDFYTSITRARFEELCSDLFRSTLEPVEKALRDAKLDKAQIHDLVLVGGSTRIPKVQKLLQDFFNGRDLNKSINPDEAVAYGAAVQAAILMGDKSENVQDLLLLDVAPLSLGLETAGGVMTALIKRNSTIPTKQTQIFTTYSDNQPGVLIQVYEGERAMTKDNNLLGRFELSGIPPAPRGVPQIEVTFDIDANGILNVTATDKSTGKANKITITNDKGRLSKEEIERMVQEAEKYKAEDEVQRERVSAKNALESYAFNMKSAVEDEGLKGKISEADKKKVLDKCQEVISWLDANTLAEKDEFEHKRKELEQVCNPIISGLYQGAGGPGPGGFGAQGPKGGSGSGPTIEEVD
# [12] = target: T3, Dual specificity protein phosphatase 6 (Rattus norvegicus, UniProt Q64346); experiment: MKP-3 phosphatase inhibitors, primary screen, biochemical, rat enzyme, in vitro (AID 425)
# T3 sequence (Q64346 whole entry): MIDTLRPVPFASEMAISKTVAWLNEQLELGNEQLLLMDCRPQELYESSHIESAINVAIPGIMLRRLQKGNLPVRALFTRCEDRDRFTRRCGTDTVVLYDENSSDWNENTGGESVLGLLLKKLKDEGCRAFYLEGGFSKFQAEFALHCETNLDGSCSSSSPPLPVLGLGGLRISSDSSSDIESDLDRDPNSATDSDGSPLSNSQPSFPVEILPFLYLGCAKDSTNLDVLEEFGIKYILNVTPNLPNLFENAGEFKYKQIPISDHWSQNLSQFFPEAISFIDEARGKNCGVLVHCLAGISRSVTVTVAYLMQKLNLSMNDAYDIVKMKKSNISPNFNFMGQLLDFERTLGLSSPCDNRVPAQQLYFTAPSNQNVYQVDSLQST
# [13] = target: Likely tRNA 2'-phosphotransferase (Candida albicans (strain SC5314 / ATCC MYA-2876) (Yeast), UniProt Q5A7N4); experiment: TPT1 tRNA phosphotransferase inhibitors, dose response, biochemical, fluorescence polarization (AID 2160)
# Chain of Likely tRNA 2'-phosphotransferase (Q5A7N4 whole entry): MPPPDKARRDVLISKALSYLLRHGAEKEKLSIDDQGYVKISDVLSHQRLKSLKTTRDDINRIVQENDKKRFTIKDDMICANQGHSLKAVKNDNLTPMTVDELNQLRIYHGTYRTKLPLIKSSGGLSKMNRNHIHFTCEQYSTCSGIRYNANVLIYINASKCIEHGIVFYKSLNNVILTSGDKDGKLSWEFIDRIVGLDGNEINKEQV
# [14] = target: Mothers against decapentaplegic homolog 3 (Homo sapiens, UniProt P84022); experiment: SMAD3 transcription factor inhibitors, dose response (AID 715); type: functional
# Chain of Mothers against decapentaplegic homolog 3 (P84022 whole entry): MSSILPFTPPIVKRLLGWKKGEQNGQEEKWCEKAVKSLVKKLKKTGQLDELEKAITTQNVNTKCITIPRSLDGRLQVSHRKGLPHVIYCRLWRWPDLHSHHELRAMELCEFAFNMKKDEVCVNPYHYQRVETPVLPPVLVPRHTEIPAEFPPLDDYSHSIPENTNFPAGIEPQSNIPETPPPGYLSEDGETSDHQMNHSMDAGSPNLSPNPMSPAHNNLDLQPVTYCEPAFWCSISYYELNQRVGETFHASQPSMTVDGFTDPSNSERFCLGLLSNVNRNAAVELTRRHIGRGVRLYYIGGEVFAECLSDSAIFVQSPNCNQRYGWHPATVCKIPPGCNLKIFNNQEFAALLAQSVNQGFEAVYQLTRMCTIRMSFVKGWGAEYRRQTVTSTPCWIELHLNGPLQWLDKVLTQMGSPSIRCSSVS
# [15] = target: Guanyl-specific ribonuclease T1 (Aspergillus oryzae (strain ATCC 42149 / RIB 40), UniProt P00651); experiment: RNase T1 inhibitors, dose response, counter-screen for TPT1 inhibitor project, biochemical, fluorescence polarization, 1536-well (AID 2167)
# Chain of Guanyl-specific ribonuclease T1 (P00651 whole entry): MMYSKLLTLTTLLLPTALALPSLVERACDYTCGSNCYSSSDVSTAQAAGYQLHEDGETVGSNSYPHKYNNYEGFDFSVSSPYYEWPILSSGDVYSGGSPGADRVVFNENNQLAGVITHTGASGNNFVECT
# [16] = target: Eukaryotic translation initiation factor 4E (Mus musculus, UniProt P63073); experiment: eIF4E–eIF4G protein interaction inhibitors, dose response, biochemical, TR-FRET (AID 855); type: functional;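 note: potency for disrupting eIF4E binding to eIF4GI seen as loss of FRET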
# Chain of Eukaryotic translation initiation factor 4E (P63073 whole entry): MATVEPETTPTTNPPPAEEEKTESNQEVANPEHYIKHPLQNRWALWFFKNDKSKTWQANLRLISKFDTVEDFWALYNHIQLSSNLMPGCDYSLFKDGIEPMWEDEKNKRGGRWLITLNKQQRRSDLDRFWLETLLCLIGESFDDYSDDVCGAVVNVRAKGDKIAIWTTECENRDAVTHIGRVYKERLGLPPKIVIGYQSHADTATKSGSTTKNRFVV
# [17] = target: T2, Heat shock 70 kDa protein 1A; experiment: Hsp70 inhibitors, probe displacement, primary screen, biochemical, fluorescence polarization (AID 583)
# [18] = target: Cytochrome P450 2C9 (Homo sapiens, UniProt P11712); conditions: Potency
# Chain of Cytochrome P450 2C9 (P11712 whole entry): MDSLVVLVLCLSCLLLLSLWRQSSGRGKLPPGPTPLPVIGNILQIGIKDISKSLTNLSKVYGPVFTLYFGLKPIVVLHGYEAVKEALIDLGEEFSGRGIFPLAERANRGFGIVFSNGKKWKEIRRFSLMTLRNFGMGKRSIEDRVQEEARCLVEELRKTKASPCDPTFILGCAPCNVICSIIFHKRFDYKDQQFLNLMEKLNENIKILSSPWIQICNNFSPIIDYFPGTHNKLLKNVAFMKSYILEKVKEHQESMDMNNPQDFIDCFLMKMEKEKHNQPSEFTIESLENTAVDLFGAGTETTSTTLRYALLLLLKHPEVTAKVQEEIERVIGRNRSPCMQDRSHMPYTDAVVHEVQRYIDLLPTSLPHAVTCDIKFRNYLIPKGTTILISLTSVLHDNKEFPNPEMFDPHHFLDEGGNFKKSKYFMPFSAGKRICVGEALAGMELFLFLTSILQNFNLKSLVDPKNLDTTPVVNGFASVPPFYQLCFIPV
# [19] = target: T4, Leucine aminopeptidase (Plasmodium falciparum 3D7, UniProt Q8IL11); experiment: P. falciparum M17LAP inhibitors, primary screen, biochemical, fluorogenic H-Leu-NHMec substrate, 1536-well (AID 1619); type: functional
# T4 sequence (Q8IL11 whole entry): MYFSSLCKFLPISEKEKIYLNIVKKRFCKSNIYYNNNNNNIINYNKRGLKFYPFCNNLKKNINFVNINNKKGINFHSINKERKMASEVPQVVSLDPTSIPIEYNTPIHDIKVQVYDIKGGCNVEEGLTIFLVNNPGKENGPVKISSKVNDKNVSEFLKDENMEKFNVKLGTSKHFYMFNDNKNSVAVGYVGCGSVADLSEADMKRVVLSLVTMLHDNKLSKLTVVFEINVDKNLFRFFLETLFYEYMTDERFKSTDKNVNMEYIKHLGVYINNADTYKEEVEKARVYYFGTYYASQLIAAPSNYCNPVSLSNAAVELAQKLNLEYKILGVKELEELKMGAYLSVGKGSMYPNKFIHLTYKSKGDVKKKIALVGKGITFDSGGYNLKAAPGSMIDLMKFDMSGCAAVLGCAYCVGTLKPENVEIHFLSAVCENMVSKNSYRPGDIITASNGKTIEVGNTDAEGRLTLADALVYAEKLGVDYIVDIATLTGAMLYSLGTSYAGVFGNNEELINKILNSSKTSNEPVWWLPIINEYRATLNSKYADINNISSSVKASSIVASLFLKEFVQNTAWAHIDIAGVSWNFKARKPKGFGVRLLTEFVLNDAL
# [20] = target: T5, Dual specificity protein phosphatase 3 (Homo sapiens, UniProt P51452); experiment: VHR1 phosphatase inhibitors, biochemical (AID 1878)
# T5 sequence (P51452 whole entry): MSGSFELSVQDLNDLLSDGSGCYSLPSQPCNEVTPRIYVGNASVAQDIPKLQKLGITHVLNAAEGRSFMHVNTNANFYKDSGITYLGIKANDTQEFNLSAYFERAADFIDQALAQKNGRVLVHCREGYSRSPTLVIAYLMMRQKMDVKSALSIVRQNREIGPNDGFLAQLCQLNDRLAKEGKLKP
# [21] = target: T2, Heat shock 70 kDa protein 1A; experiment: Hsp70 inhibitors, biochemical, TR-FRET (AID 786)
# [22] = target: T5, Dual specificity protein phosphatase 3; experiment: VHR1 phosphatase inhibitors, primary screen, biochemical, absorbance, uHTS (AID 1654)
# [23] = target: Nucleotide-binding oligomerization domain-containing protein 2 (Homo sapiens, UniProt Q9HC29); experiment: PubChem AID 2334; type: functional
# Chain of Nucleotide-binding oligomerization domain-containing protein 2 (Q9HC29 whole entry, the tested form may be a part): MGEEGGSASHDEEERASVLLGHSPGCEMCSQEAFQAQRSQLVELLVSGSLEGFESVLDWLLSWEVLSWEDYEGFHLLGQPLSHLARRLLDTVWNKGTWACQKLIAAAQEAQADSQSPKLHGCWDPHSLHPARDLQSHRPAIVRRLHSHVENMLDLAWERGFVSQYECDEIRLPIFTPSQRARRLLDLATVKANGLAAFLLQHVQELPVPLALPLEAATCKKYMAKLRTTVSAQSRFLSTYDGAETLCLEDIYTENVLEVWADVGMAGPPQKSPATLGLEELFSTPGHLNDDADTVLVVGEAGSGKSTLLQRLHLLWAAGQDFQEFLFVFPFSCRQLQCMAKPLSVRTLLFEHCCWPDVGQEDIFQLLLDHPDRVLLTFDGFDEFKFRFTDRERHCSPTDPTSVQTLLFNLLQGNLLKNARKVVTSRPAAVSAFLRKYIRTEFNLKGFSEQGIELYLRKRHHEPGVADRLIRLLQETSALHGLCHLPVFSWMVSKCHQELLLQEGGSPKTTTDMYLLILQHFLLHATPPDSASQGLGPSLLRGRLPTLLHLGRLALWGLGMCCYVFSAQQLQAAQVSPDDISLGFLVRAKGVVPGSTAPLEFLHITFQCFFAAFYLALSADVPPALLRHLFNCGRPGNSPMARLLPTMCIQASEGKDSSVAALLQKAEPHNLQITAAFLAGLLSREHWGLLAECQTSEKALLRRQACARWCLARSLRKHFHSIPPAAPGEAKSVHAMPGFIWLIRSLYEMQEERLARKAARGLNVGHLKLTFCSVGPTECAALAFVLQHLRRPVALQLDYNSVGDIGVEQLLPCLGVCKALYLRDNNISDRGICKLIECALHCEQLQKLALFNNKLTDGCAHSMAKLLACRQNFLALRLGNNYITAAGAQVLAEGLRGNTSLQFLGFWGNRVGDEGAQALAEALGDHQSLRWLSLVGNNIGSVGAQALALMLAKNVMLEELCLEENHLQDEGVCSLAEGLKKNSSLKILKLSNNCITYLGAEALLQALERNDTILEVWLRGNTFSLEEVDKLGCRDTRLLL
# [24] = target: T6, Long-chain-fatty-acid--AMP ligase FadD28 (Mycobacterium tuberculosis, UniProt P9WQ59); experiment: Fluorescence polarization aasay to screen for inhibitors that compete for the binding of FadD28 to a bisubstrate Measured in Biochemical System Using Plate Reader - 2147-01_Inhibitor_Dose_CherryPick_Activity.; type: functional, Mycobacterium tuberculosis H37Rv
# T6 sequence (P9WQ59 whole entry): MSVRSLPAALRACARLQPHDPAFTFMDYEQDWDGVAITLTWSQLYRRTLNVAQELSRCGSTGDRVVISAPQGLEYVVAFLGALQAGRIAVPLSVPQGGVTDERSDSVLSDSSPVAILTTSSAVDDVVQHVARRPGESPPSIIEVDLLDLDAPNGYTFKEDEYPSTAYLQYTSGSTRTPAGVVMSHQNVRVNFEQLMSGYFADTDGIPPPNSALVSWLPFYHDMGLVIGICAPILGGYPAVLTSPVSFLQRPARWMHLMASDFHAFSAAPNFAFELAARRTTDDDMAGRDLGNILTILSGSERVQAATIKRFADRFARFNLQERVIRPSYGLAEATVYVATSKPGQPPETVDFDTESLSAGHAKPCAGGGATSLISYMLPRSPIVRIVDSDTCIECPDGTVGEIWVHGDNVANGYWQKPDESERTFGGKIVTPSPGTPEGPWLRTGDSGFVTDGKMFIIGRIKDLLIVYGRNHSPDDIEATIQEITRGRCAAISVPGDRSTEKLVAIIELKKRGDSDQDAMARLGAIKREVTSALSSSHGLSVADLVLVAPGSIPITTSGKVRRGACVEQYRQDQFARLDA
# [25] = target: Tumor necrosis factor (Homo sapiens, UniProt P01375); experiment: TNFa-triggered NF-kB activation inhibitors, SAR follow-up, cell-based, revised (AID 2337); type: functional
# [26] = tested on: HEK293; experiment: NOD1 signaling inhibitors, primary screen, cell-based, luminescence, uHTS (AID 1578); type: functional; conditions: Homo sapiens
# [27] = tested on: HEK293; experiment: cells; type: functional, cell-based; conditions: Homo sapiens
# [28] = tested on: HEK293; experiment: cells; conditions: Homo sapiens
# [29] = tested on: HEK293; experiment: NOD2 signaling inhibitors in MDP-stimulated cells, cell-based, uHTS, luminescence (AID 2001); type: functional; conditions: Homo sapiens
# [30] = target: Nucleotide-binding oligomerization domain-containing protein 1 (Homo sapiens, UniProt Q9Y239); experiment: NOD1 signaling inhibitors, SAR follow-up, revised (AID 2333); type: functional
# [31] = tested on: HEK293; experiment: cells; type: functional, cell-based; conditions: Homo sapiens; remark: listed apart in the source
# [32] = target: Phospholipase D1 (Homo sapiens, UniProt Q13393); experiment: PLD1 purified enzyme concentration response. [Related pubchem assays (depositor defined):AID588854]; type: functional
smiles,measurement,setting,value
CC(C)=CCc1c(O)c(CC=C(C)C)c2c(c1O)-c1cc(O)c(O)cc1CC2,EC50,[1],14.7 µM (active)
same,EC50,[2],> 75 µM (inconclusive)
same,EC50,[3],8.58 µM (inconclusive)
same,IC50,[4],> 100 µM (inactive)
same,EC50,[5],> 150 µM (not active)
same,IC50,[6],> 100 µM (inactive)
same,IC50,[7],5.45 µM (active)
O=C(CNC(=O)c1ccco1)OCC(=O)c1cccc2ccccc12,AC50,[8],54.6 µM (active)
COC(C(=O)Nc1ccnn1C1CCN(C(=O)c2ccc(C=O)cc2)CC1)c1ccccc1 (configuration not stated),AC50,[9],26.2 µM (active)
O=c1oc2c(O)c(O)cc3c(=O)oc4c(O)c(O)cc1c4c23 [ELLAGIC ACID],IC50,[10],> 54 µM (active)
same,IC50,[11],> 100 µM (not active)
same,IC50,[12],39.5 µM (active)
same,IC50,[13],0.541 µM (active)
same,IC50,[14],0.142 µM (active)
same,IC50,[15],> 55.7 µM (not active)
same,IC50,[16],47.7 µM (inactive)
same,IC50,[17],0.76 µM (active)
same,AC50,[18],39.8 µM (inconclusive)
same,IC50,[19],138 µM (active)
same,IC50,[20],< 1.23 µM (inactive)
same,IC50,[21],> 100 µM (not active)
same,IC50,[22],< 0.98 µM (inactive)
COc1cc(/C=C2/C(=O)NN(c3cccc(Cl)c3)C2=O)cc(Br)c1O,IC50,[23],> 20 µM (inactive)
same,AC50,[24],> 100 µM (inactive)
same,IC50,[25],> 20 µM (inactive)
same,EC50,[26],8.57 µM (active)
same,IC50,[27],> 20 µM (inactive)
same,IC50,[28],> 20 µM (inactive)
same,IC50,[29],> 20 µM (inactive)
same,IC50,[30],3.49 µM (active)
same,IC50,[31],> 20 µM (inactive)
O=C(NCCN1CCC2(CC1)C(=O)NCN2c1ccccc1)c1cnc2ccccc2c1,IC50,[32],20 µM (active)
